From publication PMC9004346, “Development of small cyclic peptides targeting the CK2α/β interface” (Chemical Communications (Cambridge, England), 2022)
Positions count from the first letter of the chain named. *1 amine or outer side, *2 acyl side, *3 side chain or, on linkers, in order; H or OH if unused. Where a SMILES comes first, the peptide text is derived from it. Bridges are numbered along the chain shown (N, C = ends). Side-chain parts run from the residue outwards. [ ]: non-standard residue; d: D form. The star is where a group is joined. Trp(2-yl) = O=C([C@H](Cc1c([*:3])[nH]c2ccccc12)N[*:1])[*:2]; X1 = CN(CC(=O)O)c1nc(CC[*:1])cc(CC[*:2])n1; Dap(N3) = [N-]=[N+]=NC[C@H](N)C(=O)O; mXylylene = c1cc(C[*:1])cc(C[*:2])c1; CH2COCH2 = O=C(C[*:1])C[*:2]; Lauroyl = CCCCCCCCCCCC(=O)*; hCys = N[C@@H](CCS)C(=O)O; AEEA = NCCOCCOCC(=O)O; CH2 = C([*:1])[*:2]

Molecular target: T1, CK2α (Homo sapiens, UniProt P68400)
T1 construct: 571 nM CK2α_WT (residues 2-329); made in house
T1 sequence (P68400 2-329): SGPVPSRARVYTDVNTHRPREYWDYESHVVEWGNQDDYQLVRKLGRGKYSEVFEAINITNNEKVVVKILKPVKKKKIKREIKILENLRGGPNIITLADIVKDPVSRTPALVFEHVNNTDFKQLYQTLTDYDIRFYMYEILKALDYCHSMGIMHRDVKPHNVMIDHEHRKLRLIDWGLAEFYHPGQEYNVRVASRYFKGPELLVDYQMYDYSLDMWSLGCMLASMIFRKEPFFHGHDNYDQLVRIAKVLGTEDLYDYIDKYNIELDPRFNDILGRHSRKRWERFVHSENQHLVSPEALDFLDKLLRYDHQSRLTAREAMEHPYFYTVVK
Test: Fluorescence polarisation (FP) assay: displacement of a CK2β-like fluorescent probe from CK2α
Format: binding
Conditions: CK2α_WT (residues 2-329), fluorescein-labelled CK2β-based peptide probe, ±SEM
Excerpt: To assess the ability of the synthesised linear peptides to displace a CK2β-like fluorescent probe from CK2α, a fluorescence polarisation (FP) assay was used (Table 1, ESI 1.3.2 and Fig. S2, ESI ^†). […]
(§1) 1.5 Biophysical experiments
(§2) 1.5.1 Protein expression and purification
Three constructs of CK2α were used in this study. For FP assays, CK2α_WT was used (residues 2-329). […]
These constructs were cloned, expressed, and purified as previously described.19 1.5.2 Fluorescence polarisation
IC50’s were determined using a PHERAstar FS plate reader (BMG labtech). The fluorescein probe was measured using 485 nm excitation and 530 nm emission. The fluorescein probe was covalently linked to the N-terminus of the linear CK2β-based peptide RLYGFKIHPMAYQLQ. IC50’s were measured using 500, 167, 16.7, 8.33 and 0 μM of the test peptide at a constant concentration of DMSO. P7C8, P8C9, P+L and P+ were tested at concentrations of 50.0, 16.7, 1.67, 0.833 and 0 μM due to their higher potencies. The experiments were performed in a Corning 384-well plate with final concentrations of 571 nM CK2α_WT (residues 2-329), 7.4 μM fluorescent peptide (fluorescein probe was covalently linked to the N-terminus of the linear CK2β-based peptide RLYGFKIHPMAYQLQ), 200 mM NaCl, 40mM TRIS, 20 mM MgCl2 and pH 7.5. The plates were read after a 45 min incubation period. […]

| IC50 | Compound |
| --- | --- |
| 137 ± 25.8 µM | Ac-LYGFKW-NH2 [Peptide P2, LYGFKW] |
| > 500 µM | Ac-RLYGFK-NH2 [Peptide P1, RLYGFK] |
| 22.5 ± 2.4 µM | Ac-RLYGFKW-NH2 [Peptide P3, RLYGFKW] |
| 16.7 ± 2.3 µM | Ac-RLYGFKWH-NH2 [Peptide P4, RLYGFKWH] |

Continued, compound first:

| Compound | IC50 |
| --- | --- |
| CC(=O)NCC(=O)N[C@H]1Cn2cc(nn2)-c2cc(C(=O)O)cc(c2)-c2cn(nn2)C[C@@H](C(=O)NCC(=O)NCC(N)=O)NC(=O)[C@H](Cc2c[nH]cn2)NC(=O)[C@H](Cc2c[nH]c3ccccc23)NC(=O)[C@H](CCCCN)NC(=O)[C@H](Cc2ccccc2)NC(=O)CNC(=O)[C@H](Cc2ccc(O)cc2)NC(=O)[C@H](CC(C)C)NC(=O)[C@H](CCCNC(=N)N)NC1=O [P+, GXC1RLYGFKWHXC1GG, reference compound] | 8.7 ± 4.2 µM |
| CC(=O)NCC(=O)N[C@@H](CN=[N+]=[N-])C(=O)N[C@@H](CCCNC(=N)N)C(=O)N[C@@H](CC(C)C)C(=O)N[C@@H](Cc1ccc(O)cc1)C(=O)NCC(=O)N[C@@H](Cc1ccccc1)C(=O)N[C@@H](CCCCN)C(=O)N[C@@H](Cc1c[nH]c2ccccc12)C(=O)N[C@@H](Cc1c[nH]cn1)C(=O)N[C@@H](CN=[N+]=[N-])C(=O)NCC(=O)NCC(N)=O [P+L, reference compound] (Ac-G[Dap(N3)]RLYGFKWH[Dap(N3)]GG-NH2) | 11.7 µM |
| CC(=O)N[C@H]1CSCC(=O)CSC[C@@H](C(N)=O)NC(=O)[C@H](CCCCN)NC(=O)[C@H](Cc2ccccc2)NC(=O)CNC(=O)[C@H](Cc2ccc(O)cc2)NC(=O)[C@H](CC(C)C)NC(=O)[C@H](CCCNC(=N)N)NC1=O [Peptide P5C4] (Ac-CRLYGFKC-NH2; linker 1-8 via CH2COCH2) | 54.6 ± 11.2 µM |
| CC(=O)N[C@H]1CSCc2cccc(c2)CSC[C@@H](C(N)=O)NC(=O)[C@H](CCCCN)NC(=O)[C@H](Cc2ccccc2)NC(=O)CNC(=O)[C@H](Cc2ccc(O)cc2)NC(=O)[C@H](CC(C)C)NC(=O)[C@H](CCCNC(=N)N)NC1=O [Peptide P5C5] (Ac-CRLYGFKC-NH2; linker 1-8 via mXylylene) | 28.9 ± 1.9 µM |
| CC(=O)N[C@H]1CSCCc2cc(nc(N(C)CC(=O)O)n2)CCSC[C@@H](C(N)=O)NC(=O)[C@H](CCCCN)NC(=O)[C@H](Cc2ccccc2)NC(=O)CNC(=O)[C@H](Cc2ccc(O)cc2)NC(=O)[C@H](CC(C)C)NC(=O)[C@H](CCCNC(=N)N)NC1=O [Peptide P5C7] (Ac-CRLYGFKC-NH2; linker 1-8 via X1) | 40 ± 4.7 µM |
| CC(=O)N[C@H]1CSc2[nH]c3ccccc3c2C[C@@H](C(N)=O)NC(=O)[C@H](CCCCN)NC(=O)[C@H](Cc2ccccc2)NC(=O)CNC(=O)[C@H](Cc2ccc(O)cc2)NC(=O)[C@H](CC(C)C)NC(=O)[C@H](CCCNC(=N)N)NC1=O [Peptide P7C8, CC8RLYGFKWC8] (Ac-CRLYGFK[Trp(2-yl)]-NH2; thioether 1-8) | 15.6 ± 5.1 µM |

Molecular target: T2, CK2α (Homo sapiens, UniProt P68400, K74A/K75A/K76A/R21S)
T2 construct: CK2α_KA (residues 2-329) contained four mutations; made in house
T2 sequence (P68400 2-329 R21S/K74A/K75A/K76A): T1 sequence (P68400 2-329) with R20S, K73A, K74A, K75A
Test: Isothermal titration calorimetry (ITC) binding to CK2α
Conditions: 25 °C, CK2α_KA
Excerpt: Ligand efficiency (LE) is a commonly used statistic to evaluate and compare the effectiveness of drug candidates.17 Mathematically, it is related to the IC50 of the molecule, as well as the number of heavy atoms (non-hydrogen) it contains, as detailed in Equation 1. 18
Equation 1 Mathematical expression for the ligand efficiencies of compounds.18 pIC50 = -log10(IC50) LE = Number of non ‒ H atoms […]
greatest activity with the fewest heavy atoms.
as §1, §2
Three constructs of CK2α were used in this study. For FP assays, CK2α_WT was used (residues 2-329).
For ITC CK2α_KA construct was used whilst CK2α_FP10 was used for crystallisation purposes. CK2α_KA (residues 2-329) contained four mutations designed to aid crystallisation and solubility by reducing the overall charge of the protein; R21S, K74A, K75A and K76A. CK2α_FP 10 contained one mutation (R21S) and an N-terminal extension […] aimed at mimicking a substrate peptide for CK2α. These constructs were cloned, expressed, and purified as previously described.19 1.5.2 Fluorescence polarisation
IC50’s were determined using a PHERAstar FS plate reader (BMG labtech). The fluorescein probe was measured using 485 nm excitation and 530 nm emission. The fluorescein probe was covalently linked to the N-terminus of the linear CK2β-based peptide RLYGFKIHPMAYQLQ. IC50’s were measured using 500, 167, 16.7, 8.33 and 0 μM of the test peptide at a constant concentration of DMSO. P7C8, P8C9, P+L and P+ were tested at concentrations of 50.0, 16.7, 1.67, 0.833 and 0 μM due to their higher potencies. The experiments were performed in a Corning 384-well plate with final concentrations of 571 nM CK2α_WT (residues 2-329), 7.4 μM fluorescent peptide (fluorescein probe was covalently linked to the N-terminus of the linear CK2β-based peptide RLYGFKIHPMAYQLQ), 200 mM NaCl, 40mM TRIS, 20 mM MgCl2 and pH 7.5. The plates were read after a 45 min incubation period.
1.5.3 Isothermal titration calorimetry
All ITC experiments were performed at 25 °C using a MicroCal ITC-200 (GE Healthcare). […]

| Compound | Kd |
| --- | --- |
| CCCCCCCCCCCC(=O)NCCOCCOCC(=O)N[C@H]1CCSc2[nH]c3ccccc3c2C[C@@H](C(N)=O)NC(=O)[C@H](CCCCN)NC(=O)[C@H](Cc2ccccc2)NC(=O)CNC(=O)[C@H](Cc2ccc(O)cc2)NC(=O)[C@H](CC(C)C)NC(=O)[C@H](CCCNC(=N)N)NC1=O [FA-P8C9] ({Lauroyl-AEEA}-[hCys]RLYGFK[Trp(2-yl)]-NH2; thioether 1-8) | 1.3 µM |
| CC(=O)NCCOCCOCC(=O)NCCCC[C@@H]1NC(=O)[C@H](Cc2ccccc2)NC(=O)CNC(=O)[C@H](Cc2ccc(O)cc2)NC(=O)[C@H](CC(C)C)NC(=O)[C@H](CCCNC(=N)N)NC(=O)[C@@H](NC(C)=O)CCSc2[nH]c3ccccc3c2C[C@@H](C(N)=O)NC1=O [P8C9[PEG]] (Ac-[hCys]RLYGFK([AEEA-Ac])[Trp(2-yl)]-NH2; thioether 1-8 (inferred)) | 1.6 µM |

Test system: not listed separately
Test: MTT cell viability assay in HeLa cells
Format: cell-based
Conditions: human; HeLa cells, 48 h, 50 μM compound; ±standard deviation; read-out: Cell viability (%) 50 μM compound
Experimental: HeLa cells were maintained in 5% CO2 in DMEM supplemented with 10% FBS, 2 mM L-glutamine, 100 U/mL penicillin and […] streptomycin, in an atmosphere containing 5% CO2.
Cells were regularly passed and used for experiments within one month after thawing (10-15 […]
1.6.2 Cell viability assay
Cell viability was assayed by 3-(4,5-dimethylthiazol-2-yl)-2,5-diphenyltetrazolium bromide (MTT) colorimetric assay. HeLa cells were plated on 96-well plates (20,000 cells per well in 100 μL). After 24 h, cells were treated with different concentrations of test compounds or vehicle alone (DMSO). One hour before the end of the incubations, 10 μL of MTT solution (5 mg/mL in PBS) were added to each well. Formazan crystals (proportional to the number of viable cells) were then dissolved by the addition of 20 μL/well of a pH 4.7 solution containing 20% (w:v) SDS, 50% (v:v) N,N-dimethylformamide, 2% (v:v) acetic acid, and 25 mM HCl, and quantified by recording the absorbance at 570 nm using an Infinite M200 PRO plate reader (TECAN, Life Sciences). […]

| Compound | viability at 48 h, 50 µM |
| --- | --- |
| O=C(O)c1ccc2c(c1)nc(Nc1cccc(Cl)c1)c1ccncc12 [CX-4945, reference compound] | 29 ± 1% |

Same assay, conditions: human; HeLa cells, 48 h, 100 μM compound; ±standard deviation; read-out: Cell viability (%) 100 μM compound

| Compound | viability at 48 h, 100 µM |
| --- | --- |
| O=C(O)c1ccc2c(c1)nc(Nc1cccc(Cl)c1)c1ccncc12 [CX-4945, reference compound] | 21 ± 1% |

Test system: not listed separately
Test: Solubility observations during FP and ITC testing
Format: physicochemical
Conditions: observed during FP or ITC testing

| Compound | Solubility (observation in words) |
| --- | --- |
| CCCCCCCCCCCC(=O)NCCOCCOCC(=O)NCCCC[C@@H]1NC(=O)[C@H](Cc2ccccc2)NC(=O)CNC(=O)[C@H](Cc2ccc(O)cc2)NC(=O)[C@H](CC(C)C)NC(=O)[C@H](CCCNC(=N)N)NC(=O)[C@@H](NC(C)=O)CCSc2[nH]c3ccccc3c2C[C@@H](C(N)=O)NC1=O [P8C9[FA]] (Ac-[hCys]RLYGFK([AEEA-Lauroyl])[Trp(2-yl)]-NH2; thioether 1-8) | Precipitation |
| CC(=O)N[C@H]1CSCSC[C@@H](C(N)=O)NC(=O)[C@H](CCCCN)NC(=O)[C@H](Cc2ccccc2)NC(=O)CNC(=O)[C@H](Cc2ccc(O)cc2)NC(=O)[C@H](CC(C)C)NC(=O)[C@H](CCCNC(=N)N)NC1=O [Peptide P5C6] (Ac-CRLYGFKC-NH2; linker 1-8 via CH2) | poor solubility |
